Earlier results, collected in patent EP0884997B1, “COMPOSITIONS CONTAINING AN ANTIFUNGAL AND A SULFUR COMPOUND” (JANSSEN PHARMACEUTICA N.V., priority 1996, dated 1997).

Details: prior art medicated shampoos, dandruff patients

Compound: CC(=O)N1CCN(c2ccc(OCC3COC(Cn4ccnc4)(c4ccc(Cl)cc4Cl)O3)cc2)CC1 (centres unmarked) [ketoconazole]
- number of patients not responding to particular medicated shampoo: up to 30%

Compound: S=[Se]=S [selenium sulfide]
- number of patients not responding to particular medicated shampoo: up to 40%
